Converted amounts (≈) assume the structure as drawn. “And” between values parts separate entries of the source, which are not always exact repeats. Equal entries are not always repeated. Where two headings read alike, the source gives them in different places.
What was measured:
[1] = system: C57BL/6 Diet Induced Obese (DIO) mice; test: Oral (P.O.) administration study in DIO mice: animal fate (mortality) and clinical observations; details: 2 mg/kg
Protocol: Male C57BL/6 DIO mice were assigned to 12 groups, and doses of 2 mg/kg Celastrol (ERX1000-4), ERX1006, ERX1007, ERX1037, ERX1060, ERX1077, ERX1107, ERX1149, ERX1168, ERX1177, and Pristimerin were administered to Groups 2 through 12, respectively. Animals were dosed via oral gavage once daily for 10 days at a volume of 2 mL/kg. The vehicle control article was 1% methyl cellulose (400 cps) in citric acid and phosphate buffer.
Parameters assessed included mortality, clinical observations, body weights and food consumption and blood glucose evaluations.
All animals were anesthetized via carbon dioxide, sacrificed, and discarded without further evaluation on Day 11.

[2] = system: C57BL/6 Diet Induced Obese (DIO) mice; test: Oral (P.O.) administration study in DIO mice: in vivo activity, body weights; design: species or system mouse; details: for Individual Body Weight: individual male animals; for change in vivo at 2 mg/kg: Mus musculus, po, read-out: Body weight, %-Diff
Excerpt: The purpose of this study was to assess test articles in the Diet Induced Obese (DIO) mouse.
Male C57BL/6 Diet Induced Obese (DIO) mice were received from Taconic. Animals were acclimated to housing conditions for at least 1 week prior to vehicle acclimation dosing. Animals were acclimated to oral gavage dosing with vehicle once daily for Days 11 through 14 of the predose phase.
At initiation of dosing, animals were 21 to 22 weeks old, and their body weights ranged from 29.8 to 40.1 g.
Dose formulations were administered by oral gavage once daily for 10 days at a dose volume of 2 mL/kg. Doses were based on the most recently recorded scheduled body weight.
Body weights were recorded daily on Days 11 through 14 of the predose phase. Body weights were collected for all animals daily during the dosing phase prior to dosing.
Descriptive statistics (n, mean, standard error of the mean, standard deviation) were completed. Additionally, one-way analysis of variance followed by Dunnett's post-hoc test were performed on body weight (cumulative body weight change), glucose (glucose percent change), and food consumption (cumulative food consumption). Area under the curve (for body weight, cumulative body weight change, daily body weight change, and food consumption) was computed for treatment groups. An appropriate comparison test, such as one-way analysis of variance and Dunnett's, was performed on the group means for the area under the curve computations. Any additional statistical analysis and interpretation of the results were the responsibility of the sponsor.

[3] = physchem; details: pH 7.4, aqueous buffer, kinetic from dmso stock, PBS (pH 7.4)
Protocol: • Test concentration: 100 μM (1% of DMSO) • Test systems: PBS (pH 7.4) • Incubation condition: shaken (1000 rpm) for 1 h at room temperature • Sample size: Duplicates (n=2) • Bioanalytical method: LC-MS/MS

[4] = DIO mice, male, 2 mg/kg, phase DSNG, Day 7
[5] = DIO mice, male, 2 mg/kg, phase DSNG, Day 8
[6] = DIO mice, male, 2 mg/kg, phase DSNG, Day 9
[7] = DIO mice, male, 2 mg/kg, phase DSNG, Day 10
[8] = DIO mice, male, 2 mg/kg, phase DSNG, Day 11
[9] = Day 1, DSNG phase, 2 mg/kg, male, N=5
[10] = Day 2, DSNG phase, 2 mg/kg, male, N=5
[11] = Day 3, DSNG phase, 2 mg/kg, male, N=5
[12] = Day 4, DSNG phase, 2 mg/kg, male, N=5
[13] = Day 5, DSNG phase, 2 mg/kg, male, N=5
[14] = Day 6, DSNG phase, 2 mg/kg, male, N=5

CC(=O)N(C)C[C@]1(C)CC[C@]2(C)CC[C@]3(C)C4=CC=C5C(=CC(=O)C(O)=C5C)[C@]4(C)CC[C@@]3(C)[C@@H]2C1 [ERX1149]
Individual Animal Fate: Fate Status ([1]; mouse, in vivo): Scheduled Sacrifice | Individual Body Weight ([2]; 2 mg/kg, Phase Day DSNG 1): 33.3 g and 35.8 g and 39.7 g and 31.5 g and 34.3 g | Individual Body Weight ([2]; 2 mg/kg, Phase Day DSNG 2): 32.2 g and 34.8 g and 39.9 g and 31.7 g and 34.1 g | Individual Body Weight ([2]; 2 mg/kg, Phase Day PRED 11 (pre-dose baseline)): 33.3 g and 38.3 g and 41.4 g and 33.7 g and 35.6 g | Individual Body Weight ([2]; 2 mg/kg, Phase Day PRED 12 (pre-dose baseline)): 33.3 g and 37.3 g and 41.5 g and 33.4 g and 36.3 g | Individual Body Weight ([2]; 2 mg/kg, Phase Day PRED 13 (pre-dose baseline)): 33.1 g and 36.8 g and 41.4 g and 32.3 g and 35.2 g | Individual Body Weight ([2]; 2 mg/kg, Phase Day PRED 14 (pre-dose baseline)): 33.5 g and 36.1 g and 41.0 g and 32.5 g and 36.5 g | Body weight, Mean [2, 4]: 32.8 g | Body weight, Mean [2, 5]: 33.3 g | Body weight, Mean [2, 6]: 33.1 g | Body weight, Mean [2, 7]: 33.5 g | Body weight, Mean [2, 8]: 33.6 g | Body weight, Mean [2, 9]: 34.9 g | Body weight, Mean [2, 10]: 34.5 g | Body weight, Mean [2, 11]: 34.1 g | Body weight, Mean [2, 12]: 34.0 g | Body weight, Mean [2, 13]: 33.5 g | Body weight, Mean [2, 14]: 33.1 g | change in vivo at 2 mg/kg ([2]; 24 h, Day 1, DSNG phase, 2 mg/kg, male, difference of group mean): 2% | change in vivo at 2 mg/kg ([2]; 48 h, Day 2, DSNG phase, 2 mg/kg, male, difference of group mean): 0% | change in vivo at 2 mg/kg ([2]; 72 h, Day 3, DSNG phase, 2 mg/kg, male, difference of group mean): 1% | change in vivo at 2 mg/kg ([2]; 96 h, Day 4, DSNG phase, 2 mg/kg, male, difference of group mean): 2% | change in vivo at 2 mg/kg ([2]; 120 h, Day 5, DSNG phase, 2 mg/kg, male, difference of group mean): -1% | change in vivo at 2 mg/kg ([2]; 144 h, Day 6, DSNG phase, 2 mg/kg, male, difference of group mean): -1% | change in vivo at 2 mg/kg ([2]; 168 h, DIO mice, male, 2 mg/kg, phase DSNG, Day 7, difference of group mean from vehicle group 1): -2% | change in vivo at 2 mg/kg ([2]; 192 h, DIO mice, male, 2 mg/kg, phase DSNG, Day 8, difference of group mean from vehicle group 1): -1% | change in vivo at 2 mg/kg ([2]; 216 h, DIO mice, male, 2 mg/kg, phase DSNG, Day 9, difference of group mean from vehicle group 1): 0% | change in vivo at 2 mg/kg ([2]; 240 h, DIO mice, male, 2 mg/kg, phase DSNG, Day 10, difference of group mean from vehicle group 1): 0% | change in vivo at 2 mg/kg ([2]; 264 h, DIO mice, male, 2 mg/kg, phase DSNG, Day 11, difference of group mean from vehicle group 1): -1%

CC1=C(O)C(=O)C=C2C1=CC=C1[C@@]2(C)CC[C@@]2(C)[C@@H]3C[C@](C)(C(=O)N(C)C)CC[C@]3(C)CC[C@]12C [ERX1008]
solubility ([3]; Solubility (μM) Mean, Table 6-B, test concentration 100 μM (1% of DMSO), shaken (1000 rpm) 1 h at room temperature, n = 2): 0.08 µM (≈ 0.0382 µg/mL) | solubility ([3]; Solubility (μM), Table 6-D): 0.0841 µM (≈ 0.0402 µg/mL) | cumulative body weight change ([2]; 2 mg/kg oral gavage once daily for 10 days, compared with controls): statistically significant decreases

COC(=O)[C@]1(C)CC[C@]2(C)CC[C@]3(C)C4=CC=C5C(=CC(=O)C(O)=C5C)[C@]4(C)CC[C@@]3(C)[C@@H]2C1 [Pristimerin, reference compound]
Individual Animal Fate: Fate Status ([1]; individual male DIO mouse, phase of fate Dosing, phase week 2, phase day 11): Scheduled Sacrifice | Body weight, Mean [2, 4]: 33.5 g | Body weight, Mean [2, 5]: 33.1 g | Body weight, Mean [2, 6]: 32.9 g | Body weight, Mean [2, 7]: 33.2 g | Body weight, Mean [2, 8]: 33.9 g | Body weight, Mean [2, 9]: 34.2 g | Body weight, Mean [2, 10]: 34.0 g | Body weight, Mean [2, 11]: 33.7 g | Body weight, Mean [2, 12]: 33.3 g | Body weight, Mean [2, 13]: 33.3 g | Body weight, Mean [2, 14]: 33.4 g | change in vivo at 2 mg/kg ([2]; 24 h): 0% | change in vivo at 2 mg/kg ([2]; 48 h): -1% | change in vivo at 2 mg/kg ([2]; 72 h): -1% | change in vivo at 2 mg/kg ([2]; 96 h): 0% | change in vivo at 2 mg/kg ([2]; 120 h): -1% | change in vivo at 2 mg/kg ([2]; 144 h): 0% | change in vivo at 2 mg/kg ([2]; 168 h): 0% | change in vivo at 2 mg/kg ([2]; 192 h): -2% | change in vivo at 2 mg/kg ([2]; 216 h): -1% | change in vivo at 2 mg/kg ([2]; 240 h): -1% | change in vivo at 2 mg/kg ([2]; 264 h): -1% | Individual Body Weight, PRED 11 ([2]; individual male DIO mouse of the 2 mg/kg group, pre-dose phase day 11 (baseline)): 42.4 g and 35.2 g and 31.7 g and 38.2 g and 33.9 g | Individual Body Weight, PRED 12 ([2]; individual male DIO mouse of the 2 mg/kg group, pre-dose phase day 12 (baseline)): 41.2 g and 34.5 g and 31.0 g and 37.5 g and 32.5 g | Individual Body Weight, PRED 13 ([2]; individual male DIO mouse of the 2 mg/kg group, pre-dose phase day 13 (baseline)): 41.3 g and 33.4 g and 31.4 g and 37.3 g and 32.9 g | Individual Body Weight, PRED 14 ([2]; individual male DIO mouse of the 2 mg/kg group, pre-dose phase day 14 (baseline)): 41.9 g and 35.0 g and 31.6 g and 37.6 g and 33.1 g | Individual Body Weight, DSNG 1 ([2]; individual male DIO mouse, 2 mg/kg, dosing phase day 1, 2 mg/kg): 40.0 g and 33.3 g and 29.8 g and 35.5 g and 32.3 g | Individual Body Weight, DSNG 2 ([2]; individual male DIO mouse, 2 mg/kg, dosing phase day 2, 2 mg/kg): 39.4 g and 33.1 g and 30.2 g and 35.4 g and 32.1 g

Source: patent US10662218B2, “Analogs of celastrol” (ERX Pharmaceuticals, Inc., priority 2015, dated 2020)
